Experimental data reported in patent US9550811B2, “Peptide scaffold design” (BIONOR IMMUNO AS, priority 2010, dated 2017).
Where no end group is shown, it is not given here. [ ]: non-standard residue; d: D form. Cit = NC(=O)NCCC[C@H](N)C(=O)O

How the values were obtained:
Assay in all cases: REVEAL binding assay
Conditions in all cases: score as percentage of the signal generated by the positive control peptide
HLA-B35 = system: HLA-B35
HLA-B40 = system: HLA-B40
Procedure, shortened: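 Score = % of signal from a positive-control T cell epitope, reflecting how well each ninemer stabilizes the native MHC class I–peptide complex. An intermediate control of lower affinity verified each run.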

HLA-A3 = HLA-A3 (Homo sapiens, UniProt P04439)
Chain of HLA-A3 (P04439 25-299): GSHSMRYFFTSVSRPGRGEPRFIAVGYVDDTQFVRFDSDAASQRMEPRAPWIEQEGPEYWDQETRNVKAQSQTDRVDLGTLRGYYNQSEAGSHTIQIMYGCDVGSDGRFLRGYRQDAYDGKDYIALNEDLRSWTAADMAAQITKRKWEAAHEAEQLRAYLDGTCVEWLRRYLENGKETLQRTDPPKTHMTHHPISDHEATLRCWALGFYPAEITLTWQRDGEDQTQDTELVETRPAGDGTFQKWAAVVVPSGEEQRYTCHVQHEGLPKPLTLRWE
Chain of HLA-A3 (P61769 21-119, further chain): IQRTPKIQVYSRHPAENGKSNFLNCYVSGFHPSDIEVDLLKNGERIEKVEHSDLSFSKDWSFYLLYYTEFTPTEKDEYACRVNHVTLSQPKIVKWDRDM
Procedure, shortened: (§1)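 Synthetic nonamer peptides were tested for their ability to bind and stabilize MHC class I–peptide complexes, detected by the native conformation of the complex. Each peptide is scored relative to a positive-control known T-cell epitope.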

HLA-A2 = HLA-A2 (Homo sapiens, UniProt P04439, D140Y/D185E/D98H/E176V/E277Q/G131W/G231S/I119V/I121R/I166T/I218V/N151K/N90K/P208A/P217A/Q86G/Q94H/R138H/R169H)
Procedure, shortened: as §1

HLA-A11 = HLA-A11 (Homo sapiens, UniProt P04439, A114D/F33Y/S129P)
Procedure, shortened: as §1

HLA-B7 = HLA-B7 (Homo sapiens, UniProt P01889)
Chain of HLA-B7 (P61769 21-119): as the sequence (P61769 21-119, further chain) above
Chain of HLA-B7 (P01889 25-299): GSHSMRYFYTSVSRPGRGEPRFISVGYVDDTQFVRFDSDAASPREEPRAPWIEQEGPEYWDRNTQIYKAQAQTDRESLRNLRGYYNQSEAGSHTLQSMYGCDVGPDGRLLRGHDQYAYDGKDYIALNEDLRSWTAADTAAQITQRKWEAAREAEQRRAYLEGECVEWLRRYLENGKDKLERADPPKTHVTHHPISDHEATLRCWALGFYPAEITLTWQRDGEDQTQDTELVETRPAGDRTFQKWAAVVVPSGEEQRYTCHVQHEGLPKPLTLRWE
Procedure, shortened: as §1

HLA-B27 = HLA-B27 (Homo sapiens, UniProt P01889, D138H/D201E/E176V/E204Q/G107R/H137Y/K202T/N104T/N87E/Q56L/Q94K/R106L/R155S/R180L/S101D/S121N/S48T/Y140D/Y33H/Y91C)
Procedure, shortened: as §1

HLA-A24 = system: HLA-A24
HLA-A29 = system: HLA-A29
HLA-B8 = system: HLA-B8
HLA-B14 = system: HLA-B14
HLA-B15 = system: HLA-B15
HLA-A1 = system: HLA-A1

Row | Substance | REVEAL binding score, HLA-type B35 (HLA-B35) [%] | REVEAL binding score, HLA-type B40 (HLA-B40) [%] | REVEAL binding score, HLA-type A3 (HLA-A3) [%] | REVEAL binding score, HLA-type A2 (HLA-A2) [%] | REVEAL binding score, HLA-type A11 (HLA-A11) [%] | REVEAL binding score, HLA-type B7 (HLA-B7) [%] | REVEAL binding score, HLA-type B27 (HLA-B27) [%] | REVEAL binding score, HLA-type A24 (HLA-A24) [%] | REVEAL binding score, HLA-type A29 (HLA-A29) [%] | REVEAL binding score, HLA-type B8 (HLA-B8) [%] | REVEAL binding score, HLA-type B14 (HLA-B14) [%] | REVEAL binding score, HLA-type B15 (HLA-B15) [%] | REVEAL binding score, HLA-type A1 (HLA-A1) [%]
1 | SRNLGKVID | 4.59 | 33.93 | 3.46 | 4.94 | 4.45 | 1.28 | 1.28 | 0.71 | 9.94 | 16.71 | 0.67 | 11.25 | 15.30
2 | ARALAHGVR | 2.45 | 50.23 | 2.35 | 6.72 | 3.83 | 4.70 | 3.55 | 1.15 | 31.96 | 18.91 | 1.10 | 13.58 | 20.62
3 | VGGVYLLPR | 4.02 | 55.61 | 3.41 | 8.73 | 4.16 | 1.15 | 0.79 | 0.34 | 14.20 | 11.57 | 0.44 | 13.22 | 17.88
4 | TGNIPGSTY | 48.40 | 38.15 | 13.04 | 3.59 | 6.06 | 1.32 | 1.98 | 0.86 | 35.10 | 10.25 | 1.15 | 52.30 | 10.58
5 | P[Cit]IGVRAT[Cit] | 2.45 | 49.29 | 2.52 | 7.36 | 1.72 | 1.91 | 0.94 | 0.21 | 14.14 | 9.47 | 0.19 | 12.64 | 18.83
6 | LGRVIETLT | 3.43 | 62.07 | 7.40 | 5.90 | 20.27 | 2.66 | 2.54 | 0.97 | 12.31 | 14.74 | 0.28 | 16.38 | 16.33
